According to patent US12396977B2, “Composition for treating degenerative brain diseases, containing 2-pentylfuran as active ingredient” (DAEGU GYEONGBUK INSTITUTE OF SCIENCE AND TECHNOLOGY, priority 2019, dated 2025):

Key:
cerebral cortex = assay: Cytokine mRNA in cerebral cortex after IP injection (qRT-PCR); type: in vivo, mouse; conditions: vs control
Text: For the measurement of mRNA, RNA was isolated from red blood cells, microglia, astrocytes, Hana3A cells, or cerebral cortical cells using the MagNa Lyser (Roche Molecular Diagnostics) using TRIzol reagent (Invitrogen, Carlsbad, CA.) according to the manufacturer's protocol. Then, cDNA was generated through reverse transcription using the isolated mRNA (using PrimeScript™ 1st str and cDNA Synthesis kit—#6110; Takara Bio Inc). This process was quantitatively measured in real time through quantitative real-time-PCR (using LightCycler® 480 SYBR Green I Master). The measured values were calculated using the 2-ΔΔCt method.

microglia = assay: GFP intensity / morphology of microglia in CX3CR1 GFP mice; type: in vivo, mouse; conditions: cerebral cortex of CX3CR1 GFP mice after injection, vs control
Description: In order to analyze morphological changes in microglia activation, 9-week-old CX3CR1^GFP/− mice were used. Two hours after an IP containing or not containing 2-PF was injected into two mice, brain sections were collected by cryosection. After a 40 μm-thick brain tissue fragment was prepared to be smaller than 1 μm, a GFP signal of microglia was measured using a 40-fold magnification confocal microscope. A GFP-pixel signal of microglia was analyzed using Zeiss ZEN Software (Zeiss).

primary microglia = assay: Western blot of phosphorylated signalling proteins in primary microglia; type: cell-based, mouse; conditions: 0, 2, 5, 10, 20, 30 minutes after treatment
Description: Cells and tissues were prepared using the T-PER® reagent (#78510; Thermo Fisher Scientific) with protease inhibitors (#04-693-116-001; Roche Molecular Diagnostics), DMSF (Sigma-Aldrich) and lysed using the MagNA Lyser (Roche Molecular Diagnostics). A total protein extract was quantified by the Bradford assay. The sample was dissolved in 7.5% SDS-PAGE or 4 to 20% gradient mini-PROTEIN TGX Precast Gels (#456-1064; Bio-Rad Laboratories), and then blotted onto nitrocellulose membranes (#10600002; GE Healthcare). The membrane was then blocked in 5% skimmed milk powder, TBST, 0.1% TWEEN® 20 (#P9416; Sigma-Aldrich) and Tris-buffered saline for 1 hour, and then incubated with primary antibodies at 4° C. overnight. The antibodies are as follows: Olfr110 (36 kDa; 1:1,000; #ab177327; Abcam), anti rhodopsin (39 kDa; 1:1,000; #MABN15; Millipore), CREB (43 kDa; 1:1,000; #9197; Cell Signaling Technology), phospho-CREB (43 kDa; 1:1,000; #9198; Cell Signaling Technology), ERK (44 kDa; 1:1,000; #sc094; Santa Cruz), phospho-ERK (42, 44 kDa; 1:1,000; #sc-7383; Santa Cruz), phospho-Akt (60 kDa; 1:500; sc-293125; Santa Cruz), phospho-JNK (46, 54 kDa; 1:500; sc-6254; Santa Cruz), phosphor-p38 (38 kDa; 1:1,000; sc-7973; Santa Cruz), or beta-Actin (45 kDa; 1:10,000; #4967; Cell Signaling Technology). Furthermore, an isotype-matched horseradish peroxidase-conjugated secondary antibody was used at 1:100,000 with anti-rabbit in TBST (#711-035-152; Jackson ImmunoResearch) and 1:40,000 with anti-mouse (#715-035-150; Jackson ImmunoResearch) at room temperature for 2 hours. As an immunoreactive protein band, SuperSignal™ West Pico Chemiluminescent Substrate (#34080; Thermo Fisher Scientific) was used.

CCCCCc1ccco1 [2-PF, 2-pentylfuran]
mRNA expression level of inflammatory cytokines in the cerebral cortex (cerebral cortex): significantly increased | GFP intensity of microglia (morphological change, activation) (microglia): highly increased | phosphorylation levels of ERK, p38, JNK, and Akt (primary microglia): increased from 2 minutes and stopped increasing at 20 minutes
